From patent US12110293B2, “Substituted triazolo quinoxaline derivatives” (GRÜNENTHAL GMBH, priority 2018, dated 2024)

Each compound was assayed against T1, glucocorticoid receptor (Homo sapiens, UniProt P04150) (assay: Agonistic mode of action on the glucocorticoid receptor (CHO-Gal4/GR luciferase reporter cell line)). Details: range class observed in the agonistic assay or the antagonistic assay (CHO-Gal4/GR reporter cells); table does not say which mode applies per example.
T1 construct: expressed in transfected cells
T1 sequence (P04150 524-758 limits assumed): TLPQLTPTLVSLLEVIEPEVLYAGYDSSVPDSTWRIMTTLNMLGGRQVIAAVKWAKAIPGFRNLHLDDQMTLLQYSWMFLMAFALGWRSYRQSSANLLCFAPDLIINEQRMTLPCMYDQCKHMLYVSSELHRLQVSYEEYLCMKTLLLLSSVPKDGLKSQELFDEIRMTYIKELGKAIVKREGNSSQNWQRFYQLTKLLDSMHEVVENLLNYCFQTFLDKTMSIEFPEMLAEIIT
Assay type: cell-based
In short: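 Agonism measured as dose-dependent luciferase luminescence (FLIPR Tetra) from a GAL4-UAS reporter driven by GAL4 DBD fused to GR ligand-binding domain in stable CHO cells. Eight half-log doses, 10 μM to 0.003 μM final in 0.5% DMSO, quadruplicate, on cells seeded 24 h earlier at 5000/well; EC50 derived.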

Row | IC50 or EC50 (agonist or antagonist mode not specified) [nM] | Structure (SMILES)
1 | 1000 to 15000 | Cc1nnc2n1-c1c(cc(F)c(-c3cccc4c3ccn4S(=O)(=O)C(C)C)c1C(F)F)NC2(C)C [Example 400, 9-(Difluoro-methyl)-7-fluoro-8-[1-(isopropylsulfonyl)-1H-indol-4-yl]-1,4,4-trimethyl-5H-[1,2,4]triazolo [4,3-a]quinoxaline]
2 | 100 to 1000 | COc1c(-c2cccc3c2ccn3C)c(F)cc2c1-n1c(C)nnc1C(C)(C)N2 [Example 487, 7-Fluoro-9-methoxy-1,4,4-trimethyl-8-(1-methyl-1H-indol-4-yl)-5H-[1,2,4]triazolo[4,3-a] quinoxaline]
3 | 1000 to 15000 | Cc1nnc2n1-c1c(cc(OC(F)F)c(-c3cccc4[nH]ccc34)c1F)NC2(C)C [Example 297, 7-(Difluoro-methoxy)-9-fluoro-8-(1H-indol-4-yl)-1,4,4-trimethyl-5H-[1,2,4]triazolo[4,3-a]quinoxaline]
4 | 1000 to 15000 | COCCn1ccc2c(-c3c(Cl)cc4c(c3F)-n3c(C)nnc3C(C)(C)N4)cccc21 [Example 280, 7-Chloro-9-fluoro-8-[1-(2-methoxy-ethyl)-1H-indol-4-yl]-1,4,4-trimethyl-5H-[1,2,4]triazolo[4,3-a]quinoxaline]
5 | 1000 to 15000 | CCc1nnc2n1-c1c(cc(F)c(-c3cccc4c3cnn4C3CC3)c1C)NC2(C)C [Example 242, 8-(1-Cyclopropyl-1H-indazol-4-yl)-1-ethyl-7-fluoro-4,4,9-trimethyl-5H-[1,2,4]triazolo[4,3-a]quinoxaline]
6 | 100 to 1000 | Cc1n[nH]c2c(-c3c(F)cc4c(c3C(F)F)-n3c(C)nnc3C(C)(C)N4)cccc12 [Example 367, 9-(Difluoro-methyl)-7-fluoro-1,4,4-trimethyl-8-(3-methyl-1H-indazol-7-yl)-5H-[1,2,4]triazolo[4,3-a]quinoxaline]
7 | 100 to 1000 | COc1cc2c(c(F)c1-c1cccc3[nH]c(C(F)(F)F)cc13)-n1c(C)nnc1C(C)(C)N2 [Example 257, 9-Fluoro-7-methoxy-1,4,4-trimethyl-8-[2-(trifluoromethyl)-1H-indol-4-yl]-5H-[1,2,4]triazolo[4,3-a]quinoxaline]
8 | 1000 to 15000 | Cc1nnc2n1-c1c(cc(F)c(-c3cccc4c3cc(C(F)(F)F)n4S(C)(=O)=O)c1F)NC2(C)C [Example 271, 7,9-Difluoro-1,4,4-trimethyl-8-[1-methylsulfonyl-2-(trifluoromethyl)-1H-indol-4-yl]-5H-[1,2,4]triazolo [4,3-a]quinoxaline]
9 | 100 to 1000 | Cc1c(-c2cccc3cc[nH]c23)c(F)cc2c1-n1c(C)nnc1C(C)(C)N2 [Example 25, 7-fluoro-8-(1H-indol-7-yl)-1,4,4,9-tetramethyl-4,5-dihydro-[1,2,4]triazolo[4,3-a]quinoxaline]
10 | 100 to 1000 | Cc1nnc2n1-c1c(cc(F)c(-c3cccc4c3ccn4S(=O)(=O)C3CC3)c1F)NC2(C)C [Example 205, 8-[1-(Cyclopropylsulfonyl)-1H-indol-4-yl]-7,9-difluoro-1,4,4-trimethyl-5H-[1,2,4]triazolo[4,3-a]quinoxaline]
11 | 100 to 1000 | Cc1nnc2n1-c1c(cc(F)c(-c3cccc4c3cnn4C3CC3)c1F)NC2(C)C [Example 243, 8-(1-Cyclopropyl-1H-indazol-4-yl)-7,9-difluoro-1,4,4-trimethyl-5H-[1,2,4]triazolo[4,3-a]quinoxaline]
12 | < 100 | Cc1c(-c2cc(F)cc3c2ccn3S(C)(=O)=O)c(OC(F)(F)F)cc2c1-n1c(C)nnc1C(C)(C)N2 [Example 403, 8-(6-Fluoro-1-methylsulfonyl-1H-indol-4-yl)-1,4,4,9-tetramethyl-7-(trifluoromethyloxy)-5H-[1,2,4]triazolo[4,3-a]quinoxaline]
13 | 1000 to 15000 | CCc1nnc2n1-c1c(cc(F)c(-c3cc(F)cc4c(C#N)c[nH]c34)c1F)NC2(C)C [Example 15, 7-(1-ethyl-7,9-difluoro-4,4-dimethyl-4,5-dihydro-[1,2,4]triazolo[4,3-a]quinoxalin-8-yl)-5-fluoro-1H-indole-3-carbonitrile]
14 | 100 to 1000 | Cc1cc2c(c(F)c1-c1cc(F)cc3c1ccn3C)-n1c(C)nnc1C(C)(C)N2 [Example 520, 9-Fluoro-8-(6-fluoro-1-methyl-1H-indol-4-yl)-1,4,4,7-tetramethyl-5H-[1,2,4]triazolo[4,3-a]quinoxaline]
15 | 100 to 1000 | Cc1nnc2n1-c1c(cc(F)c(-c3cccc4c3ccn4C3CC3)c1C(F)F)NC2(C)C [Example 514, 8-(1-Cyclopropyl-1H-indol-4-yl)-9-(difluoro-methyl)-7-fluoro-1,4,4-trimethyl-5H-[1,2,4]triazolo[4,3-a]quinoxaline]
16 | < 100 | Cc1nnc2n1-c1c(cc(F)c(-c3cccc4c(C5CCC5)c[nH]c34)c1Cl)NC2(C)C [Example 41, 9-chloro-8-(3-cyclobutyl-1H-indol-7-yl)-7-fluoro-1,4,4-trimethyl-4,5-dihydro-[1,2,4]triazolo[4,3-a]quinoxaline]
17 | 100 to 1000 | Cc1nnc2n1-c1c(cc(F)c(-c3ccc(F)c4c3ccn4S(C)(=O)=O)c1C(F)(F)F)NC2(C)C [Example 484, 7-Fluoro-8-(7-fluoro-1-methyl-sulfonyl-1H-indol-4-yl)-1,4,4-trimethyl-9-(trifluoromethyl)-5H-[1,2,4]triazolo[4,3-a]quinoxaline]
18 | 100 to 1000 | Cc1nnc2n1-c1c(cc(F)c(-c3cccc4c(C5CC5)c[nH]c34)c1Cl)NC2(C)C [Example 85, 9-Chloro-8-(3-cyclopropyl-1H-indol-7-yl)-7-fluoro-1,4,4-trimethyl-5H-[1,2,4]triazolo[4,3-a]quinoxaline]
19 | < 100 | Cc1nnc2n1-c1c(cc(F)c(-c3ccc(F)c4[nH]ccc34)c1C(F)F)NC2(C)C [Example 496, 9-(Difluoro-methyl)-7-fluoro-8-(7-fluoro-1H-indol-4-yl)-1,4,4-trimethyl-5H-[1,2,4]triazolo[4,3-a] quinoxaline]
20 | 100 to 1000 | CCS(=O)(=O)n1ccc2c(-c3c(OC)cc4c(c3C(F)(F)F)-n3c(C)nnc3C(C)(C)N4)cc(F)cc21 [Example 369, 8-[1-(Ethylsulfonyl)-6-fluoro-1H-indol-4-yl]-7-methoxy-1,4,4-trimethyl-9-(trifluoromethyl)-5H-[1,2,4]triazolo[4,3-a]quinoxaline]
21 | 100 to 1000 | Cc1nnc2n1-c1c(cc(F)c(-c3cccc4cc[nH]c34)c1C(F)(F)F)NC2(C)C [Example 86, 7-fluoro-8-(1H-indol-7-yl)-1,4,4-trimethyl-9-(trifluoromethyl)-4,5-dihydro-[1,2,4]triazolo[4,3-a]quinoxaline]
22 | 100 to 1000 | Cc1nnc2n1-c1c(cc(F)c(-c3cccc4cc[nH]c34)c1F)NC2(C)C [Example 9, 7,9-difluoro-8-(1H-indol-7-yl)-1,4,4-trimethyl-4,5-dihydro-[1,2,4]triazolo[4,3-a]quinoxaline]
23 | 100 to 1000 | Cc1c(-c2cc(C(F)(F)F)cc3[nH]ccc23)c(F)cc2c1-n1c(C)nnc1C(C)(C)N2 [Example 470, 7-Fluoro-1,4,4,9-tetramethyl-8-[6-(trifluoromethyl)-1H-indol-4-yl]-5H-[1,2,4]triazolo[4,3-a]quinoxaline]
24 | < 100 | Cc1c(-c2cccc3c2ccn3S(C)(=O)=O)c(OC(F)(F)F)cc2c1-n1c(C)nnc1C(C)(C)N2 [Example 465, 1,4,4,9-Tetramethyl-8-(1-methylsulfonyl-1H-indol-4-yl)-7-(trifluoromethyloxy)-5H-[1,2,4]triazolo[4,3-a]quinoxaline]
25 | 100 to 1000 | COc1c(-c2cccc3[nH]ncc23)c(F)cc2c1-n1c(C)nnc1C(C)(C)N2 [Example 490, 7-Fluoro-8-(1H-indazol-4-yl)-9-methoxy-1,4,4-trimethyl-5H-[1,2,4]triazolo[4,3-a]quinoxaline]
26 | < 100 | Cc1nnc2n1-c1c(cc(F)c(-c3cc(F)cc4[nH]ccc34)c1F)NC2(C)C [Example 1, 7,9-difluoro-8-(6-fluoro-1H-indol-4-yl)-1,4,4-trimethyl-4,5-dihydro-[1,2,4]triazolo[4,3-a]quinoxaline]
27 | < 100 | CCS(=O)(=O)n1ccc2c(-c3c(F)cc4c(c3C(F)F)-n3c(C)nnc3C(C)(C)N4)cccc21 [Example 461, 9-(Difluoro-methyl)-8-[1-(ethylsulfonyl)-1H-indol-4-yl]-7-fluoro-1,4,4-trimethyl-5H-[1,2,4] triazolo[4,3-a]quinoxaline]
28 | 100 to 1000 | Cc1nnc2n1-c1c(cc(F)c(-c3cc(F)cc4cc[nH]c34)c1C(F)F)NC2(C)C [Example 515, 9-(Difluoro-methyl)-7-fluoro-8-(5-fluoro-1H-indol-7-yl)-1,4,4-trimethyl-5H-[1,2,4]triazolo[4,3-a] quinoxaline]
29 | 100 to 1000 | Cc1c[nH]c2c(-c3c(F)cc4c(c3F)-n3c(Cc5cccnc5)nnc3C(C)(C)N4)cc(F)cc12 [Example 73, 7,9-Difluoro-8-(5-fluoro-3-methyl-1H-indol-7-yl)-4,4-dimethyl-1-(pyridin-3-yl-methyl)-5H-[1,2,4]triazolo[4,3-a]quinoxaline]
